One block for each compound: values may come before it.
Assays:
Assay type in all cases: cell-based, human
miR-29c = experiment: Quantitative RT-PCR (TaqMan miRNA assay), cellular and secreted miRNA in LSMC; conditions: for miR-29c level: 48 hours, LSMC; for expression of miR-29c: primary leiomyoma cells
Protocol: (§1) Total RNA was extracted from LSMC using RNAzol (GeneCopoeia, Rockville, Md.) and their quantity and quality was determined (ND-1000 Spectrophotometer, NanoDrop Technologies, Wilmington, Del.) as previously described (Chuang & Khorram, “miR-200c Regulates IL8 Expression by Targeting IKBKB: A Potential Mediator of Inflammation in Leiomyoma Pathogenesis,” PloS one (2014) 9:e95370). For medium miRNA extraction, 5 pg of synthetic miR-1 from Caenorhabditis elegans (cel-miR-1) was added as a spike-in control for purification efficiency. Subsequently, 2 μg or 10 ng (for miRNA) was reverse transcribed using random primers for CCND1, CDK2, COL1A1, COL3A1, TGF-β3, DNMT1 and EZH2 or specific primers for miR-29c and miR-200c according to the manufacturer's guidelines (Applied Biosystems, Carlsbad, Calif.). Quantitative RT-PCR was carried out using SYBR gene expression master mix or TaqMan miRNA expression assays (Applied Biosystems). Reactions were incubated for 10 min at 95° C. followed by 40 cycles for 15 seconds at 95° C. and 1 min at 60° C. The level of mRNAs and expression of cellular and secreted miRNA was determined using the Invitrogen StepOne System with 18S, RNU6B and cel-miR-1 used for normalization respectively. All reactions were run in triplicate and relative expression was analyzed with the comparative cycle threshold method (2^−ΔΔCT) according to the manufacturer (Applied Biosystems). Values were expressed as fold change compared to the control group.

3′UTR of COL3A1 = experiment: 3′UTR luciferase reporter assay in LSMC; conditions: primary leiomyoma cells
Protocol: LSMC were seeded at 3.5×10^4 cells/well in 6-well plates and at sub-confluence were treated with Tranilast (200 μM) or DMSO as control for 48 hrs. Tranilast and DMSO-treated cells were then transfected with luciferase reporter plasmids (1 μg/well) containing 3′ UTR sequences for COL3A1 or CDK2 (GeneCopoeia, Inc., Rockville, Md.) using PureFection transfection reagent (System Biosciences, Inc., Palo Alto, Calif.). After 48 hrs of transfection Firefly and Renilla luciferase activities were measured using the Dual-Luciferase Reporter Assay System (Promega). Firefly luciferase activity was normalized to Renilla luciferase activity. The level of induction was reported as mean±SEM of three experiments and compared with a ratio in cells treated with DMSO independently set as 1.
FIG. 10A: The relative luciferase activity in LSMC treated with Tranilast (200 μM) or DMSO as control for 48 hrs prior to transfection with Renilla and Firefly luciferase reporter plasmids carrying a 3′UTR fragment of COL3A1, CDK2 or IL8 and incubated with Tranilast (200 μM) or DMSO containing medium after transfection for another 48 hrs. The relative luciferase activity is presented as the ratio of Firefly:Renilla as compared to DMSO which was independently set as 1. The results are presented as mean±SEM of at least three sets of independent experiments using LSMC isolated from 3 patients. FIG. 10B: Protein expression of COL3A1 and CDK2 was determined after transfection of anti-miR scrambled oligonucleotides (aNC) or anti-miR-29c oligonucleotides (a29c) in LSMC for 72 hrs with DMSO or Tranilast (200 μM) treatment for the last 48 hrs. GAPDH was used as loading control. The result is one representative of at least three sets of independent experiments using LSMC isolated from 3 patients. FIG. 10C: The bar graph presented the relative band densities as mean±SEM of at least three independent experiments. Inhibition of protein expression by Tranilast treatment was calculated relative to changes in corresponding DMSO controls in cells transfected with aNC or anti-miR-29c.

3′UTR of CDK2 = experiment: 3′UTR luciferase reporter assay in LSMC; conditions: primary leiomyoma cells
miR-200c = experiment: Quantitative RT-PCR (TaqMan miRNA assay), cellular and secreted miRNA in LSMC; conditions: primary leiomyoma cells
Protocol: as §1

Compound: CC(=O)Oc1ccccc1C(=O)O [Aspirin]
- miR-29c level (miR-29c; Aspirin 10 mM): not affected

Compound: O=C(CC1NCCCC1O)Cn1cnc2cc(Br)c(Cl)cc2c1=O (centres unmarked) [Halofuginone]
- activity of luciferase reporter containing 3′UTR of COL3A1 (3′UTR of COL3A1; Halofuginone 200 nM): inhibit
- activity of luciferase reporter containing 3′UTR of CDK2 (3′UTR of CDK2; Halofuginone 200 nM): inhibit
- expression of miR-29c (miR-29c; Halofuginone 200 nM): induce
- expression of miR-200c (miR-200c; Halofuginone 200 nM): induce

- activity of luciferase reporter containing 3′UTR of COL3A1 (3′UTR of COL3A1; Pirfenidone 0.25 mg/ml): inhibit
- activity of luciferase reporter containing 3′UTR of CDK2 (3′UTR of CDK2; Pirfenidone 0.25 mg/ml): inhibit
Compound: Cc1ccc(=O)n(-c2ccccc2)c1 [Pirfenidone]
- expression of miR-29c (miR-29c; Pirfenidone 0.25 mg/ml): induce
- expression of miR-200c (miR-200c; Pirfenidone 0.25 mg/ml): induce

Compound: CCCCc1oc2ccccc2c1C(=O)c1cc(I)c(OCCN(CC)CC)c(I)c1 [amiodarone]
- miR-29c level (miR-29c; amiodarone 1 μM): not affected

Compound: bleomycin
- miR-29c level (miR-29c; bleomycin 10 μg/ml): not affected
